Source: ChEMBL document CHEMBL3351333, “Structural analysis of a novel small molecule ligand bound to the CXCL12 chemokine” (J Med Chem, 2014)

Target: Stromal cell-derived factor 1 (Homo sapiens) (UniProt P48061)
Assay: Binding affinity to CXCL12 in human THP1 cells assessed as inhibition of CXCL12-induced cell migration at 25 uM incubated for 2 hrs by flow cytometry based chemotaxis assay
Details: THP-1

Sequence of Stromal cell-derived factor 1 (Homo sapiens) (P48061 whole entry): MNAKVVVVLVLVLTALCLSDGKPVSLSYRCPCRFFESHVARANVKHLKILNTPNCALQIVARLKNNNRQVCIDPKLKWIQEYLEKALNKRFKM

SMILES	inhibition
O=C(Nc1ccccc1)Nc1ccc(-c2nnn[nH]2)cc1	20%
O=C(NCCc1ccccc1)Nc1ccc(-c2nnn[nH]2)cc1	40%
